Reference: PMC9739877, “Discovery and Mechanistic Investigation of Piperazinone Phenylalanine Derivatives with Terminal Indole or Benzene Ring as Novel HIV-1 Capsid Modulators” (Molecules, 2022)

Columns and labels:
HIV-2 (ROD) = test: Anti-HIV-2 (ROD) activity in MT-4 cells, MTT assay; type: cell-based; settings: Human immunodeficiency virus 2, MT4, 50% protection against HIV-induced cytotoxicity
Protocol: (§1) II. In vitro anti-HIV Assay in MT-4 Cells
(§2) Evaluation of the antiviral activity of the compounds against HIV in MT-4 cells was performed using the MTT assay as described below. Stock solutions (10 × final concentration) of test compounds were added in 25 µL volumes to two series of triplicate wells to allow simultaneous evaluation of their effects on mock- and HIV-infected cells at the beginning of each experiment. Serial 5-fold dilutions of test compounds were made directly in flat-bottomed 96-well microtiter trays using a Biomek 3000 robot (Beckman Instruments, Fullerton, CA). Untreated HIV- and mock-infected cell samples were included as controls. HIV stock (50 µL) at 100-300 CCID50 (50 % cell culture infectious doses) or culture medium was added to either the infected or mock-infected wells of the microtiter tray. Mock-infected cells were used to evaluate the effects of the test compound on uninfected cells to assess the test compounds' cytotoxicity. Exponentially growing MT-4 cells were centrifuged for 5 minutes at 220 g, and the supernatant was discarded. […]
(§3) cells/mL, and 50 µL volumes were transferred to the microtiter tray wells. Five days after infection, the viability of mock-and HIV-infected cells was examined spectrophotometrically using the MTT assay. The MTT assay is based on the reduction of yellow colored 3-(4,5-dimethylthiazol-2-yl)-2,5-diphenyltetrazolium bromide (MTT) (Acros Organics) by mitochondrial dehydrogenase activity in metabolically active cells to a blue-purple formazan that can be measured spectrophotometrically. The absorbances were read in an eight-channel computer-controlled photometer (Infinite M1000, Tecan), at two wavelengths (540 and 690 nm). All data were calculated using the median absorbance value of three wells. […]
(§4) was defined as the concentration of the test compound that reduced the absorbance (OD540) of the mock-infected control sample by 50%. The concentration achieving 50% protection against the cytopathic effect of the virus in infected cells was defined as the […]

HIV-1 (IIIB) = test: microbe, parasite or virus in culture; type: cell-based; settings: Human immunodeficiency virus 1, MT4, 50% protection against HIV-induced cytotoxicity, MT-4 cells, MTT
Protocol: as §1, §2, §3, §4

MT-4 cells = test: Cytotoxicity in mock-infected MT-4 cells, MTT assay; type: cell-based; settings: 50% reduction of viability of mock-infected MT-4 cells
Protocol: (§5) II. In vitro anti-HIV Assay in MT-4 Cells […]
(§6) performed using the MTT assay as described below. Stock solutions (10 × final concentration) of test compounds were added in 25 µL volumes to two series of […]
(§7) infected cells at the beginning of each experiment. Serial 5-fold dilutions of test […]
(§8) Biomek 3000 robot (Beckman Instruments, Fullerton, CA). Untreated HIV- and mock-infected cell samples were included as controls. HIV stock (50 µL) at 100-300 CCID50 […]
(§9) or mock-infected wells of the microtiter tray. Mock-infected cells were used to evaluate […]
(§10) cytotoxicity. Exponentially growing MT-4 cells were centrifuged for 5 minutes at 220 g, and the supernatant was discarded. […]
(§11) cells/mL, and 50 µL volumes were transferred to the microtiter tray wells. Five days […]
(§12) spectrophotometrically using the MTT assay. The MTT assay is based on the reduction […]
(§13) M1000, Tecan), at two wavelengths (540 and 690 nm). All data were calculated using the median absorbance value of three wells.
(§14) (OD540) of the mock-infected control sample by 50%. The concentration achieving 50%

[1] = as above; type: cell-based; settings: human, 50% reduction of viability of mock-infected MT-4 cells
Protocol: as §5, §6, §7, §8, §9, §10, §11, §12, §13, §14

in vitro = settings: both, human, plasma

Row | Structure (SMILES) | EC50 (HIV-2 (ROD)) | EC50 (HIV-1 (IIIB)) | CC50 (MT-4 cells) | also measured
1 | COc1ccc(N(C)C(=O)[C@H](Cc2cc(F)cc(F)c2)NC(=O)CN2CCN(C(=O)Cc3c(C)[nH]c4ccccc34)CC2=O)cc1 [F2-7a, (S)-3-(3,5-difluorophenyl)-N-(4-methoxyphenyl)-N-methyl-2-(2-(4-(2-(2-methyl-1H-indol-3-yl)acetyl)-2-oxopiperazin-1-yl)acetamido)propenamide] | 19.7 ± 6.59 µM | 20.8 ± 5.09 µM | 76.9 ± 20 µM | –
2 | COc1ccc(N(C)C(=O)[C@H](Cc2ccccc2)NC(=O)CN2CCN(C(=O)Cc3c[nH]c4ccc(OC)cc34)CC2=O)cc1 [7b, (S)-2-(2-(4-(2-(5-methoxy-1H-indol-3-yl)acetyl)-2-oxopiperazin-1-yl)acetamido)-N-(4-methoxyphenyl)-N-methyl-3-phenylpropanamide] | 16.9 ± 3.58 µM | 14.6 ± 0.39 µM | 104 ± 3.37 µM | –
3 | COc1ccc(N(C)C(=O)[C@H](Cc2cc(F)cc(F)c2)NC(=O)CN2CCN(C(=O)Cc3c[nH]c4ccc(OC)cc34)CC2=O)cc1 [F2-7b, (S)-3-(3,5-difluorophenyl)-2-(2-(4-(2-(5-methoxy-1H-indol-3-yl)acetyl)-2-oxopiperazin-1-yl)acetamido)-N-(4-methoxyphenyl)-N-methylpropanamide] | > 15.9 µM | > 15.9 µM | 15.9 ± 3.83 µM | –
4 | COc1ccc(N(C)C(=O)[C@H](Cc2ccccc2)NC(=O)CN2CCN(C(=O)c3ccc(NC(=O)C4CC4)cc3)CC2=O)cc1 [7i, (S)-N-(4-(4-(2-((1-((4-methoxyphenyl)(methyl)amino)-1-oxo-3-phenylpropan-2-yl)amino)-2-oxoethyl)-3-oxopiperazine-1-carbonyl)phenyl)cyclopropanecarboxamide] | 15 ± 2.27 µM | > 168 µM | 168 ± 19.8 µM | –
5 | COc1ccc(N(C)C(=O)[C@H](Cc2cc(F)cc(F)c2)NC(=O)CN2CCN(C(=O)Cc3c[nH]c4ccc(O)cc34)CC2=O)cc1 [F2-7e, (S)-3-(3,5-difluorophenyl)-2-(2-(4-(2-(5-hydroxy-1H-indol-3-yl)acetyl)-2-oxopiperazin-1-yl)acetamido)-N-(4-methoxyphenyl)-N-methylpropanamide] | ≥ 49.6 µM | > 132 µM | 132 ± 33 µM | –
6 | COc1ccc(N(C)C(=O)[C@H](Cc2ccccc2)NC(=O)CN2CCN(C(=O)c3ccc(NS(C)(=O)=O)cc3)CC2=O)cc1 [7h, (S)-N-(4-methoxyphenyl)-N-methyl-2-(2-(4-(4-(methylsulfonamido)benzoyl)-2-oxopiperazin-1-yl)acetamido)-3-phenylpropanamide] | > 201 µM | 192 ± 3.17 µM | – | CC50 at 5 days [1]: > 201 µM
7 | COc1ccc(N(C)C(=O)[C@H](Cc2cc(F)cc(F)c2)NC(=O)CN2CCN(C(=O)c3ccc(NC(=O)C4CC4)cc3)CC2=O)cc1 [F2-7i, (S)-N-(4-(4-(2-((3-(3,5-difluorophenyl)-1-((4-methoxyphenyl)(methyl)amino)-1-oxopropan-2-yl)amino)-2-oxoethyl)-3-oxopiperazine-1-carbonyl)phenyl)cyclopropanecarboxamide] | 15.1 ± 0.68 µM | 14.4 ± 1.31 µM | 88.6 ± 11.3 µM | –
8 | Cc1[nH]c2ccccc2c1CC(=O)N[C@@H](Cc1ccccc1)C(=O)N(C)c1ccccc1 [PF74] | – | – | – | half-life at 2 μM (in vitro): > 289 min; remaining at 0 h, 2 μM (in vitro): 100%
9 | COc1ccc(N(C)C(=O)[C@H](Cc2ccccc2)NC(=O)CN2CCN(C(=O)c3ccc(NC(C)=O)cc3)CC2=O)cc1 [7g, (S)-2-(2-(4-(4-acetamidobenzoyl)-2-oxopiperazin-1-yl)acetamido)-N-(4-methoxyphenyl)-N-methyl-3-phenylpropanamide] | 184 ± 19.3 µM | 203 ± 11 µM | – | CC50 at 5 days [1]: > 213 µM
10 | COc1ccc(N(C)C(=O)[C@H](Cc2ccccc2)NC(=O)CN2CCN(C(=O)Cc3c[nH]c4ccccc34)CC2=O)cc1 [7d, (S)-2-(2-(4-(2-(1H-indol-3-yl)acetyl)-2-oxopiperazin-1-yl)acetamido)-N-(4-methoxyphenyl)-N-methyl-3-phenylpropanamide] | 4.89 ± 1.39 µM | 15 ± 0.24 µM | 112 ± 3.22 µM | –
11 | COc1ccc(N(C)C(=O)[C@H](Cc2ccccc2)NC(=O)CN2CCN(C(=O)Cc3c[nH]c4ccc(Br)cc34)CC2=O)cc1 [7c, (S)-2-(2-(4-(2-(5-bromo-1H-indol-3-yl)acetyl)-2-oxopiperazin-1-yl)acetamido)-N-(4-methoxyphenyl)-N-methyl-3-phenylpropanamide] | > 16.4 µM | > 16.4 µM | 16.4 ± 3.44 µM | –
12 | COc1ccc(N(C)C(=O)[C@H](Cc2ccccc2)NC(=O)CN2CCN(C(=O)Cc3c[nH]c4ccc(F)cc34)CC2=O)cc1 [7f, (S)-2-(2-(4-(2-(5-fluoro-1H-indol-3-yl)acetyl)-2-oxopiperazin-1-yl)acetamido)-N-(4-methoxyphenyl)-N-methyl-3-phenylpropanamide] | 4.52 ± 0.87 µM | 21.8 ± 4.81 µM | 90.1 ± 15.7 µM | –
13 | COc1ccc(N(C)C(=O)[C@H](Cc2ccccc2)NC(=O)CN2CCN(C(=O)c3ccc(NC(=O)C(F)(F)F)cc3)CC2=O)cc1 [7j, (S)-N-(4-methoxyphenyl)-N-methyl-2-(2-(2-oxo-4-(4-(2,2,2-trifluoroacetamido)benzoyl)piperazin-1-yl)acetamido)-3-phenylpropanamide] | 15 ± 4.83 µM | 158 ± 6.77 µM | – | CC50 at 5 days [1]: > 195 µM
14 | COc1ccc(N(C)C(=O)[C@H](Cc2cc(F)cc(F)c2)NC(=O)CN2CCN(C(=O)Cc3c[nH]c4ccccc34)CC2=O)cc1 [F2-7d, (S)-2-(2-(4-(2-(1H-indol-3-yl)acetyl)-2-oxopiperazin-1-yl)acetamido)-3-(3,5-difluorophenyl)-N-(4-methoxyphenyl)-N-methylpropanamide] | 17.6 ± 9.14 µM | 29.4 ± 7.03 µM | 57.8 ± 21.8 µM | –
15 | CC(C)[N+](C)(CCOC(=O)C1c2ccccc2Oc2ccccc21)C(C)C [Propantheline bromide] | – | – | – | half-life at 2 μM (in vitro): 11.2 min; remaining at 0 h, 2 μM (in vitro): 100%; remaining at 10 min, 2 μM (in vitro): 56.5%; remaining at 0.5 h, 2 μM (in vitro): 19.4%; remaining at 1 h, 2 μM (in vitro): 1.9%; remaining at 2 h, 2 μM (in vitro): 0.1%
16 | COc1ccc(N(C)C(=O)[C@H](Cc2cc(F)cc(F)c2)NC(=O)CN2CCN(C(=O)c3ccc(NS(C)(=O)=O)cc3)CC2=O)cc1 [F2-7h, (S)-3-(3,5-difluorophenyl)-N-(4-methoxyphenyl)-N-methyl-2-(2-(4-(4-(methylsulfonamido)benzoyl)-2-oxopiperazin-1-yl)acetamido)propenamide] | 183 ± 2.77 µM | 161 ± 15.4 µM | – | CC50 at 5 days [1]: > 190 µM
17 | COc1ccc(N(C)C(=O)[C@H](Cc2cc(F)cc(F)c2)NC(=O)CN2CCN(C(=O)c3ccc(NC(C)=O)cc3)CC2=O)cc1 [F2-7g, (S)-2-(2-(4-(4-acetamidobenzoyl)-2-oxopiperazin-1-yl)acetamido)-3-(3,5-difluorophenyl)-N-(4-methoxyphenyl)-N-methylpropanamide] | 192 ± 4.57 µM | 177 ± 16.6 µM | 196 ± 6.8 µM | –
18 | COc1ccc(N(C)C(=O)[C@H](Cc2cc(F)cc(F)c2)NC(=O)CN2CCN(C(=O)c3ccc(NC(=O)C(F)(F)F)cc3)CC2=O)cc1 [F2-7j, (S)-3-(3,5-difluorophenyl)-N-(4-methoxyphenyl)-N-methyl-2-(2-(2-oxo-4-(4-(2,2,2-trifluoroacetamido)benzoyl)piperazin-1-yl)acetamido)propenamide] | 16.6 ± 6.13 µM | 13.7 ± 0.7 µM | 150 ± 25.5 µM | –
19 | COc1ccc(N(C)C(=O)[C@H](Cc2cc(F)cc(F)c2)NC(=O)CN2CCN(C(=O)Cc3c[nH]c4ccc(Br)cc34)CC2=O)cc1 [F2-7c, (S)-2-(2-(4-(2-(5-bromo-1H-indol-3-yl)acetyl)-2-oxopiperazin-1-yl)acetamido)-3-(3,5-difluorophenyl)-N-(4-methoxyphenyl)-N-methylpropanamide] | > 3.15 µM | > 3.15 µM | 3.15 ± 0.4 µM | –
20 | COc1ccc(N(C)C(=O)[C@H](Cc2ccccc2)NC(=O)CN2CCN(C(=O)Cc3c(C)[nH]c4ccccc34)CC2=O)cc1 [7a, (S)-N-(4-methoxyphenyl)-N-methyl-2-(2-(4-(2-(2-methyl-1H-indol-3-yl)acetyl)-2-oxopiperazin-1-yl)acetamido)-3-phenylpropanamide] | 7.74 ± 0.79 µM | 14.3 ± 0.76 µM | 108 ± 3.26 µM | –
